# Experimental data from patent publication US11370847B2, “Single domain antibodies directed against intracellular antigens” (Singh Biotechnology, LLC, priority 2014, dated 2022).
# Where “and” joins values, the source holds several entries; their conditions need not be identical. Equal values may be shown once. Read-outs that look alike come from different tables or passages of the source.
# System: MDA-MB-231 xenograft
# Conditions: for Individual Tumor Measurements: listed as anti-STAT3 bacterial VHH13
# [1] = Group 3, 2 mg/kg IP BID×14, day 29 (7/2/15)
# [2] = Group 3, 2 mg/kg IP BID×14, day 33 (7/6/15)
# [3] = Group 3, 2 mg/kg IP BID×14, day 36 (7/9/15)
# [4] = Group 3, 2 mg/kg IP BID×14, day 42 (7/15/15)
# [5] = Group 4, 2 mg/kg IP QD×14, day 20 (6/23/15)
# [6] = Group 4, 2 mg/kg IP QD×14, day 23 (6/26/15)
# [7] = Group 4, 2 mg/kg IP QD×14, day 26 (6/29/15)
# [8] = Group 4, 2 mg/kg IP QD×14, day 29 (7/2/15)
# [9] = Group 4, 2 mg/kg IP QD×14, day 33 (7/6/15)
# [10] = Group 4, 2 mg/kg IP QD×14, day 36 (7/9/15)
# [11] = Group 4, 2 mg/kg IP QD×14, day 42 (7/15/15)
substance,measurement,setting,value
"anti-STAT3 VHH13: anti-STAT3 single-domain antibody, SEQ ID NO:3; bacterially produced, referred to as SBT-100",Tumor Mean Absolute,[1],45.95 mm^3
same,Tumor Median Absolute,[1],43.07 mm^3
same,Individual Tumor Measurements,[1],31.76 mm^3 and 80.69 mm^3 and 54.38 mm^3 and 16.99 mm^3
same,% Inhibition Mean,[2],73.69%
same,% Inhibition Median,[2],72.49%
same,Tumor Mean Absolute,[2],58.27 mm^3
same,Tumor Median Absolute,[2],56.29 mm^3
same,Individual Tumor Measurements,[2],34.11 mm^3 and 110.72 mm^3 and 78.47 mm^3 and 9.78 mm^3
same,% Inhibition Mean,[3],75.18%
same,% Inhibition Median,[3],71.22%
same,Tumor Mean Absolute,[3],59.21 mm^3
same,Tumor Median Absolute,[3],64.51 mm^3
same,Individual Tumor Measurements,[3],50.33 mm^3 and 89.11 mm^3 and 78.68 mm^3 and 18.71 mm^3
same,% Inhibition Mean,[4],83.89%
same,% Inhibition Median,[4],85.17%
same,Tumor Mean Absolute,[4],41.15 mm^3
same,Tumor Median Absolute,[4],35.89 mm^3
same,Individual Tumor Measurements,[4],18.94 mm^3 and 73.89 mm^3 and 51.30 mm^3 and 20.48 mm^3
same,growth delay,Group 3: 2 mg/kg bw IP BID×14,9.52 days
same,mean growth inhibition,Group 3: 2 mg/kg bw IP BID×14,75.2
same,mean tumor size (±S.E.) at termination (day 42),Group 3: 2 mg/kg bw IP BID×14,41.15±13.21
same,mean tumor size (±SE) at day 14 of dosing,Group 3: 2 mg/kg bw IP BID×14,58.27±22.54
same,% treatment/control,"Group 3: 2 mg/kg bw IP BID×14, (tumor regression)",−54.4%
same,tumor doubling time,"Group 3: 2 mg/kg bw IP BID×14, control 20.56 days",30.07 days
same,% Inhibition Mean,[5],−14.18%
same,% Inhibition Median,[5],−1.80%
same,Tumor Mean Absolute,[5],105.60 mm^3
same,Tumor Median Absolute,[5],100.88 mm^3
same,Individual Tumor Measurements,[5],88.56 mm^3 and 78.73 mm^3 and 113.20 mm^3 and 141.91 mm^3
same,% Inhibition Mean,[6],32.37%
same,% Inhibition Median,[6],16.23%
same,Tumor Mean Absolute,[6],93.99 mm^3
same,Tumor Median Absolute,[6],96.82 mm^3
same,Individual Tumor Measurements,[6],108.35 mm^3 and 51.51 mm^3 and 85.29 mm^3 and 130.82 mm^3
same,% Inhibition Mean,[7],54.06%
same,% Inhibition Median,[7],43.65%
same,Tumor Mean Absolute,[7],79.20 mm^3
same,Tumor Median Absolute,[7],78.40 mm^3
same,Individual Tumor Measurements,[7],105.80 mm^3 and 54.20 mm^3 and 69.30 mm^3 and 87.49 mm^3
same,% Inhibition Mean,[8],46.13%
same,% Inhibition Median,[8],38.19%
same,Tumor Mean Absolute,[8],105.54 mm^3
same,Tumor Median Absolute,[8],103.05 mm^3
same,Individual Tumor Measurements,[8],102.94 mm^3 and 70.39 mm^3 and 103.16 mm^3 and 145.68 mm^3
same,% Inhibition Mean,[9],40.66%
same,% Inhibition Median,[9],36.92%
same,Tumor Mean Absolute,[9],131.44 mm^3
same,Tumor Median Absolute,[9],129.05 mm^3
same,Individual Tumor Measurements,[9],183.39 mm^3 and 84.29 mm^3 and 103.20 mm^3 and 154.89 mm^3
same,% Inhibition Mean,[10],55.94%
same,% Inhibition Median,[10],54.32%
same,Tumor Mean Absolute,[10],105.10 mm^3
same,Tumor Median Absolute,[10],102.39 mm^3
same,Individual Tumor Measurements,[10],159.78 mm^3 and 55.83 mm^3 and 87.15 mm^3 and 117.63 mm^3
same,% Inhibition Mean,[11],43.03%
same,% Inhibition Median,[11],48.55%
same,Tumor Mean Absolute,[11],145.51 mm^3
same,Tumor Median Absolute,[11],124.47 mm^3
same,Individual Tumor Measurements,[11],291.06 mm^3 and 42.03 mm^3 and 130.64 mm^3 and 118.31 mm^3
same,growth delay,Group 4: 2 mg/kg bw IP QD×14,6.61 days
same,mean growth inhibition,Group 4: 2 mg/kg bw IP QD×14,55.9
same,mean tumor size (±S.E.) at termination (day 42),Group 4: 2 mg/kg bw IP QD×14,145.51±52.32
same,mean tumor size (±SE) at day 14 of dosing,Group 4: 2 mg/kg bw IP QD×14,131.44±22.86
same,% treatment/control,"Group 4: 2 mg/kg bw IP QD×14, (tumor inhibition)",10.28%
same,tumor doubling time,"Group 4: 2 mg/kg bw IP QD×14, control 20.56 days",27.17 days
same,mean tumor size (±S.E.) at termination (day 28),SBT-100 5 mg/kg bw i.p. BID×14,91.72±33.17
same,mean tumor size (±SE) at last day of dosing (Day 14),SBT-100 5 mg/kg bw i.p. BID×14,83.81±22.65
same,% treatment/control,"SBT-100 5 mg/kg bw i.p. BID×14, (tumor inhibition)",13.35%
same,tumor doubling time,"SBT-100 5 mg/kg bw i.p. BID×14, control […] days",111.6 days
same,mean tumor growth inhibition at the end of the study,"SBT-100 5 mg/kg bw i.p. BID×14, p=0.006",85.8%
